Values of other authors as cited in paper PMC10818380, “Triphenylphosphonium Analogs of Short Peptide Related to Bactenecin 7 and Oncocin 112 as Antimicrobial Agents” (Pharmaceutics, 2024).
Converted amounts (≈) assume the structure as drawn.

Tests used:
[1] = tested on: B. subtilis 168; set-up: method as in PMID 33922611; conditions: cited from earlier work
[2] = tested on: B. subtilis CFR; conditions: cited from earlier work

For `O=C(N[C@H](CO)[C@H](O)c1ccc([N+](=O)[O-])cc1)C(Cl)Cl` [Chloramphenicol], the MIC [1] is given as 12 µM (≈ 3.88 µg/mL) and the MIC [2] is given as 90 µM (≈ 29.1 µg/mL).
